Data: patent US10125134B2 (Mirati Therapeutics, Inc., priority 2016, dated 2018)
Structures can show the parent of a compound that is named as a salt. Where two headings read alike, the source gives them in different places.

Experiments:
KRas G12C = KRas G12C (Homo sapiens, UniProt P01116, C118S/C51S/C80L/G12C); experiment: KRas G12C Modification Assay (LCMS detection of covalent adduct); type: binding
How it was run: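 Cys-light KRas G12C mutant protein incubated with compound in K-Ras assay buffer, reactions quenched at set time points with 25 mM acetic acid and analysed by intact-protein LC/MS on a C-3 column. Deconvoluted mass heights expressed as percent of control (POC) relative to compound-free protein.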

[1] = test system: NCI-H358 cells (express KRas G12C), Phospho-ERK; experiment: Cellular inhibition of KRas G12C: Phospho-ERK in NCI-H358 cells; type: cell-based
How it was run: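 IC50 derived by 4-parameter fit of GAPDH-normalized pERK(Thr202/Tyr204) signal, as percent of DMSO control. Signal came from in-cell immunodetection with infrared secondaries after 3 h compound exposure of KRas G12C NCI-H358 cells at 0.5% DMSO.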

[2] = normalized percent of control, tested at 5 μM concentration for 3 hours
[3] = Homo sapiens, NCI-H358, 3 h, pERK(Thr202/Tyr204) normalized with GAPDH, NCI-H358 cells, 3 hours, read-out: IC50
[4] = Homo sapiens, pERK(Thr202/Tyr204) normalized with GAPDH, NCI-H358 cells, 3 hours, read-out: IC50

POC (KRas G12C; [2])	SMILES	IC50 [1, 3] [nM]	further results
C (“C”>50% POC)	C=CC(=O)N1CCN(c2nc(OC[C@@H]3CCCN3C)nc3c2CCN(c2c(F)cccc2C(F)(F)F)C3)CC1CC#N (stereo partly drawn) [Example 411, 2-(1-acryloyl-4-(7-(2-fluoro-6-(trifluoromethyl)phenyl)-2-(((S)-1-methylpyrrolidin-2-yl)methoxy)-5,6,7,8-tetrahydropyrido[3,4-d]pyrimidin-4-yl)piperazin-2-yl)acetonitrile]	–	IC50 ([1]; pERK(Thr202/Tyr204) normalized with GAPDH, NCI-H358 cells, 3 hours, read-out: IC50): 0.1 to 1000 nM
C (“C”>50% POC)	C=CC(=O)N1CCN(c2nc(OC[C@@H]3CCCN3C(C)C)nc3c2CCN(c2cc(O)cc4ccccc24)C3)CC1 [Example 145, 1-[4-[7-(3-hydroxy-1-naphthyl)-2-[[(2S)-1-isopropylpyrrolidin-2-yl]methoxy]-6,8-dihydro-5H-pyrido[3,4-d]pyrimidin-4-yl]piperazin-1-yl]prop-2-en-1-one]	0.1 to 1000	–
C (“C”>50% POC)	C=CC(=O)N1CCN(c2nc(OCCCN3C[C@@H]4C[C@H]3CO4)nc3c2CCN(c2cc(O)cc4ccccc24)C3)CC1CC#N (stereo partly drawn) [Example 153, 2-[4-[7-(3-hydroxy-1-naphthyl)-2-[3-[(1S,4S)-2-oxa-5-azabicyclo[2.2.1]heptan-5-yl]propoxy]-6,8-dihydro-5H-pyrido[3,4-d]pyrimidin-4-yl]-1-prop-2-enoyl-piperazin-2-yl]acetonitrile]	–	IC50 [1, 4]: 0.1 to 1000 nM
C (“C”>50% POC)	C=CC(=O)N1CCN(c2nc(OC[C@H]3CCCN3C)nc3c2CCN(c2cccc(Cl)c2C(F)(F)F)C3)C[C@@H]1CC#N [Example 319, 2-((S)-1-acryloyl-4-(7-(3-chloro-2-(trifluoromethyl)phenyl)-2-(((R)-1-methylpyrrolidin-2-yl)methoxy)-5,6,7,8-tetrahydropyrido[3,4-d]pyrimidin-4-yl)piperazin-2-yl)acetonitrile]	0.1 to 1000	–
C (“C”>50% POC)	C=CC(=O)N1CCN(c2nc(OC[C@H]3COCCN3C)nc3c2CCN(c2cccc4ccccc24)C3)CC1CC#N (stereo partly drawn) [Example 273, 2-(1-acryloyl-4-(2-(((R)-4-methylmorpholin-3-yl)methoxy)-7-(naphthalen-1-yl)-5,6,7,8-tetrahydropyrido[3,4-d]pyrimidin-4-yl)piperazin-2-yl)acetonitrile]	> 1000	–
C (“C”>50% POC)	C=CC(=O)N1CCN(c2nc(OC[C@@H]3CCCN3C)nc3c2CCN(c2cccc(F)c2Cl)C3)C[C@@H]1CC#N [Example 405, 2-((S)-1-acryloyl-4-(7-(2-chloro-3-fluorophenyl)-2-(((S)-1-methylpyrrolidin-2-yl)methoxy)-5,6,7,8-tetrahydropyrido[3,4-d]pyrimidin-4-yl)piperazin-2-yl)acetonitrile]	0.1 to 1000	–
C (“C”>50% POC)	C=CC(=O)N1CCN(c2nc(OC[C@@H]3CCCN3CCO)nc3c2CCN(c2cccc4ccccc24)C3)C[C@@H]1CC#N [Example 341, 2-((S)-1-acryloyl-4-(2-(((S)-1-(2-hydroxyethyl)pyrrolidin-2-yl)methoxy)-7-(naphthalen-1-yl)-5,6,7,8-tetrahydropyrido[3,4-d]pyrimidin-4-yl)piperazin-2-yl)acetonitrile]	0.1 to 1000	–
C (“C”>50% POC)	C=CC(=O)N1CCN(c2nc(OC[C@@H]3CCCN3C)nc3c2CCN(c2cccc(C)c2Cl)C3)C[C@@H]1CC#N [Example 424, 2-((S)-1-acryloyl-4-(7-(2-chloro-3-methylphenyl)-2-(((S)-1-methylpyrrolidin-2-yl)methoxy)-5,6,7,8-tetrahydropyrido[3,4-d]pyrimidin-4-yl)piperazin-2-yl)acetonitrile]	0.1 to 1000	–
C (“C”>50% POC)	C=CC(=O)N1CCN(c2nc(OC[C@@H]3CCCN3C)nc3c2CCN(c2cccc4cccc(C)c24)C3)C[C@@H]1CC#N [Example 359, 2-((S)-1-acryloyl-4-(7-(8-methylnaphthalen-1-yl)-2-(((S)-1-methylpyrrolidin-2-yl)methoxy)-5,6,7,8-tetrahydropyrido[3,4-d]pyrimidin-4-yl)piperazin-2-yl)acetonitrile]	0.1 to 1000	–
C (“C”>50% POC)	C=CC(=O)N1CCN(c2nc(OC[C@@H]3CCCN3CC)nc3c2CCN(c2cccc4ccccc24)C3)CC1CC#N (stereo partly drawn) [Example 233, 2-(1-acryloyl-4-(2-(((S)-1-ethylpyrrolidin-2-yl)methoxy)-7-(naphthalen-1-yl)-5,6,7,8-tetrahydropyrido[3,4-d]pyrimidin-4-yl)piperazin-2-yl)acetonitrile]	0.1 to 1000	–
C (“C”>50% POC)	C=CC(=O)N1CCN(c2nc(OCCN(CC)CC)nc3c2CCN(c2c(C)ccc4[nH]ncc24)C3)CC1 [Example 163, 1-(4-(2-(2-(diethylamino)ethoxy)-7-(5-methyl-1H-indazol-4-yl)-5,6,7,8-tetrahydropyrido[3,4-d]pyrimidin-4-yl)piperazin-1-yl)prop-2-en-1-one]	–	IC50 [1, 4]: > 1000 nM

Continued, compound first:

SMILES	POC (KRas G12C; [2])	IC50 [1, 3] [nM]	further results
C=CC(=O)N1CCN(c2nc(N3CCN(CCO)CC3)nc3c2CCN(c2cc(O)cc4ccccc24)C3)CC1 [Example 26, 1-(4-(2-(4-(2-hydroxyethyl)piperazin-1-yl)-7-(3-hydroxynaphthalen-1-yl)-5,6,7,8-tetrahydropyrido[3,4-d]pyrimidin-4-yl)piperazin-1-yl)prop-2-en-1-one]	C (“C”>50% POC)	> 1000	–
C=CC(=O)N1CCN(c2nc(O[C@H]3CCCN(C)C3)nc3c2CCN(c2cc(O)cc4ccccc24)C3)CC1 [Example 66, (S)-1-(4-(7-(3-hydroxynaphthalen-1-yl)-2-((1-methylpiperidin-3-yl)oxy)-5,6,7,8-tetrahydropyrido[3,4-d]pyrimidin-4-yl)piperazin-1-yl)prop-2-en-1-one]	C (“C”>50% POC)	> 1000	–
C=CC(=O)N1CCN(c2nc(OC[C@@H]3CCCN3C)nc3c2CCN(c2c(C(F)(F)F)ccc4[nH]ncc24)C3)CC1CC#N (stereo partly drawn) [Example 149, 2-[4-[2-[[(2S)-1-methylpyrrolidin-2-yl]methoxy]-7-[5-(trifluoromethyl)-1H-indazol-4-yl]-6,8-dihydro-5H-pyrido[3,4-d]pyrimidin-4-yl]-1-prop-2-enoyl-piperazin-2-yl]acetonitrile]	B (“B”>25% POC−≤50% POC)	–	IC50 [1, 4]: 0.1 to 1000 nM
C=CC(=O)N1CCN(c2nc(OCCN(C)C)nc3c2CCN(c2cc(O)cc4ccccc24)C3)C(CO)C1 (stereo not drawn) [Example 53, 1-(4-(2-(2-(dimethylamino)ethoxy)-7-(3-hydroxynaphthalen-1-yl)-5,6,7,8-tetrahydropyrido[3,4-d]pyrimidin-4-yl)-3-(hydroxymethyl)piperazin-1-yl)prop-2-en-1-one]	C (“C”>50% POC)	> 1000	–
C=CC(=O)N1[C@@H]2CC[C@H]1CN(c1nc(OC(C)CN(C)C)nc3c1CCN(c1cc(O)cc4ccccc14)C3)C2 (stereo partly drawn) [Example 45, 1-((1R,5S)-3-(2-((1-(dimethylamino)propan-2-yl)oxy)-7-(3-hydroxynaphthalen-1-yl)-5,6,7,8-tetrahydropyrido[3,4-d]pyrimidin-4-yl)-3,8-diazabicyclo[3.2.1]octan-8-yl)prop-2-en-1-one]	A (“A”≤25% POC)	–	IC50 [1, 4]: > 1000 nM
C=CC(=O)N1CCN(c2nc(OC(C)CNC)nc3c2CCN(c2cc(O)cc4ccccc24)C3)CC1 (stereo not drawn) [Example 70, 1-(4-(7-(3-hydroxynaphthalen-1-yl)-2-((1-(methylamino)propan-2-yl)oxy)-5,6,7,8-tetrahydropyrido[3,4-d]pyrimidin-4-yl)piperazin-1-yl)prop-2-en-1-one]	C (“C”>50% POC)	> 1000	–
C=CC(=O)N1CCN(c2nc(OCCCN3CCS(=O)(=O)CC3)nc3c2CCN(c2cc(O)cc4ccccc24)C3)CC1 [Example 34, 1-(4-(2-(3-(1,1-dioxidothiomorpholino)propoxy)-7-(3-hydroxynaphthalen-1-yl)-5,6,7,8-tetrahydropyrido[3,4-d]pyrimidin-4-yl)piperazin-1-yl)prop-2-en-1-one trifluoroacetate]	A (“A”≤25% POC)	> 1000	–
C=CC(=O)N1CCN(c2nc(OCCN(C)C)nc3c2CCN(c2cc(O)cc4ccccc24)C3)CC1CCO (stereo not drawn) [Example 171, 1-(4-(2-(2-(dimethylamino)ethoxy)-7-(3-hydroxynaphthalen-1-yl)-5,6,7,8-tetrahydropyrido[3,4-d]pyrimidin-4-yl)-2-(2-hydroxyethyl)piperazin-1-yl)prop-2-en-1-one]	–	–	POC (KRas G12C; 5 µM): C (key: “A”≤25% POC; “B”>25% POC−≤50% POC; “C”>50% POC); IC50 ([1]; Homo sapiens, NCI-H358, 3 h): > 1000 nM
C=CC(=O)N1CCN(c2nc(OCCN3CCCC[C@H]3C)nc3c2CCN(c2cc(O)cc4ccccc24)C3)CC1 [Example 97, (R)-1-(4-(7-(3-hydroxynaphthalen-1-yl)-2-(2-(2-methylpiperidin-1-yl)ethoxy)-5,6,7,8-tetrahydropyrido[3,4-d]pyrimidin-4-yl)piperazin-1-yl)prop-2-en-1-one]	C (“C”>50% POC)	0.1 to 1000	–
C=CC(=O)N1CCN(c2nc(O[C@H](C)CN3CCOCC3)nc3c2CCN(c2cc(O)cc4ccccc24)C3)CC1 [Example 56, (R)-1-(4-(7-(3-hydroxynaphthalen-1-yl)-2-((1-morpholinopropan-2-yl)oxy)-5,6,7,8-tetrahydropyrido[3,4-d]pyrimidin-4-yl)piperazin-1-yl)prop-2-en-1-one]	C (“C”>50% POC)	0.1 to 1000	–
